According to patent US20250042900A1 (priority 2022, published 2025):
Where a name gives a salt, the structure may show the parent alone.

Columns and labels:
[1] = molecular target: T1, dopamine transporter (DAT) (Rattus norvegicus, UniProt P23977); assay: Dopamine Release Assay in rat synaptosomes; format: biochemical; conditions: rat synaptosomes preloaded with 30 nM [3H]DA; eight concentrations from 10 μM; four-parameter log-logistic fit; estimated
T1 construct: synaptosomes prepared from brains using standard procedures; from tissue; host or cells: caudate synaptosomes of male Sprague-Dawley rats
T1 sequence (P23977 whole entry): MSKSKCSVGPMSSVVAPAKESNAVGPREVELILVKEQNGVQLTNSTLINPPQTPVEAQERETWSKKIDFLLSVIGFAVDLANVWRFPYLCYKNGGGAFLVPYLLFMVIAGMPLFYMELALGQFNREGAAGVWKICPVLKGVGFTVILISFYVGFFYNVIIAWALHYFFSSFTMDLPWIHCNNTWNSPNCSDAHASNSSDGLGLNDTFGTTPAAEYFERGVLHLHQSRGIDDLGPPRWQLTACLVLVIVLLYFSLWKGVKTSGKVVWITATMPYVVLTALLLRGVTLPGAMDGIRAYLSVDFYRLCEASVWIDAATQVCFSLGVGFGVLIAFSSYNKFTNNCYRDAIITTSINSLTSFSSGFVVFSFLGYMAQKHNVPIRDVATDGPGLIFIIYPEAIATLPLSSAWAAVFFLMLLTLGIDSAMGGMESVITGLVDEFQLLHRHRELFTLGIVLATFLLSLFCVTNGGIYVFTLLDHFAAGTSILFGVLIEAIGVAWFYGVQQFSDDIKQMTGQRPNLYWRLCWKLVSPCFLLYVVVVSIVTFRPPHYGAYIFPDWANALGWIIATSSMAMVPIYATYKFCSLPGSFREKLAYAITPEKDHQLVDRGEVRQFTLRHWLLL

[2] = molecular target: CAV1.2 (Voltage-gated L-type calcium channel) (Homo sapiens, UniProt Q13936); assay: Ion channel assay, blocker format; format: cell-based; conditions: read-out: IC50 (μM) Antag./Blocker/Inhibitor
CAV1.2 (Voltage-gated L-type calcium channel), sequence (Q13936 whole entry): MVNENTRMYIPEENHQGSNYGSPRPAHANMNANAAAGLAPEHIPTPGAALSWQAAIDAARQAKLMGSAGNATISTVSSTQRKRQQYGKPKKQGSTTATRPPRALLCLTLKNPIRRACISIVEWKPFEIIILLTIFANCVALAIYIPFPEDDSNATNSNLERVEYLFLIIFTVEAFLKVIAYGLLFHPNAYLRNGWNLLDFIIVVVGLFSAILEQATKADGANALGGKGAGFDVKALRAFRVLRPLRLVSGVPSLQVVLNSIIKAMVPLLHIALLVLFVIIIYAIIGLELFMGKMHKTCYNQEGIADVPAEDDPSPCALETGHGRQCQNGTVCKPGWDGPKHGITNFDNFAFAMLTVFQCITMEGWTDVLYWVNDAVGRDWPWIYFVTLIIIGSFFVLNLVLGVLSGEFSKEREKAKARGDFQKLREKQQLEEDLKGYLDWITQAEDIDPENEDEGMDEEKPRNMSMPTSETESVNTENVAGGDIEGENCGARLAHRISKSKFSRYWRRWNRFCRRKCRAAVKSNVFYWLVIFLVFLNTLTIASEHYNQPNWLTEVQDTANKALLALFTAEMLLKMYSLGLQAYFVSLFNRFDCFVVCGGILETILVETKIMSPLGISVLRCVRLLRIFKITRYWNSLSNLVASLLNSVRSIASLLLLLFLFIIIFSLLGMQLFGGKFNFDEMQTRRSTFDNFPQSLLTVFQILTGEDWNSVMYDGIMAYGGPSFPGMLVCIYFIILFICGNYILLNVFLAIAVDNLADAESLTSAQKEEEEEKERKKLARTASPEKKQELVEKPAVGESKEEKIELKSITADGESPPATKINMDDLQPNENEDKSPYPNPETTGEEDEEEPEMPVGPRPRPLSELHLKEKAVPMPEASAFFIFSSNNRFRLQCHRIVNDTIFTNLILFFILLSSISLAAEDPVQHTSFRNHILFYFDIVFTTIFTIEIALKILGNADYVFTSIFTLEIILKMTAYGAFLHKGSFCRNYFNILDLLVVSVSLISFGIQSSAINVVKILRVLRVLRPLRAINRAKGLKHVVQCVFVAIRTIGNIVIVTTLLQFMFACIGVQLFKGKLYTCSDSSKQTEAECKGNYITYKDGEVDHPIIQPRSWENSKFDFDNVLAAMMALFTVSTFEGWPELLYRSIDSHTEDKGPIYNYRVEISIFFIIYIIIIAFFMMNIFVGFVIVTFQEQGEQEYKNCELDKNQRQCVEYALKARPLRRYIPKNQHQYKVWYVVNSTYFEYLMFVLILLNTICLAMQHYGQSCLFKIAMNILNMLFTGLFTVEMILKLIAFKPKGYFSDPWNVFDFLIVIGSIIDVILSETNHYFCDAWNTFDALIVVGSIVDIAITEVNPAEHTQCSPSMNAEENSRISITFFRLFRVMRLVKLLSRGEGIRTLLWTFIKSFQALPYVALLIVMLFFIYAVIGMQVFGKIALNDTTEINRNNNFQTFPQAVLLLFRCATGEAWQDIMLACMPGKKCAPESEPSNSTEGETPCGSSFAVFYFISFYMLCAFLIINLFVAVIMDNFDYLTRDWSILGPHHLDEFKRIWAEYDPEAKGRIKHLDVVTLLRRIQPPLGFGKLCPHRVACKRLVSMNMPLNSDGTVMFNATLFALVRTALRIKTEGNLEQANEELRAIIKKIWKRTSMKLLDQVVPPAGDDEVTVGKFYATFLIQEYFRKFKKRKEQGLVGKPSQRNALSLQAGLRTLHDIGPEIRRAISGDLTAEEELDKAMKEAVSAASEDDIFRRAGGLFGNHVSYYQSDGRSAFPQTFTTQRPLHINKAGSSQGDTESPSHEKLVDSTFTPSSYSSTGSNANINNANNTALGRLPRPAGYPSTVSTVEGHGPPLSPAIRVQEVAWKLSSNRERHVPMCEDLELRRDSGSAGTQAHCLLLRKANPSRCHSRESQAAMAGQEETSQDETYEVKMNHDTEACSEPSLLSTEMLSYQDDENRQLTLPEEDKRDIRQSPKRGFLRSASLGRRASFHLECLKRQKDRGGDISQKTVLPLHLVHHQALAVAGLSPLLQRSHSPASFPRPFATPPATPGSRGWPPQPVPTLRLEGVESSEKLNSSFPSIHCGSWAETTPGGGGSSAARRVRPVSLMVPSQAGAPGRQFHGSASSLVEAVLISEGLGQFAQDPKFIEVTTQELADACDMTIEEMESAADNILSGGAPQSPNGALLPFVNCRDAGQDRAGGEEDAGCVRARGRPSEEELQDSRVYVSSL
CAV1.2 (Voltage-gated L-type calcium channel), sequence (Q08289 whole entry partner): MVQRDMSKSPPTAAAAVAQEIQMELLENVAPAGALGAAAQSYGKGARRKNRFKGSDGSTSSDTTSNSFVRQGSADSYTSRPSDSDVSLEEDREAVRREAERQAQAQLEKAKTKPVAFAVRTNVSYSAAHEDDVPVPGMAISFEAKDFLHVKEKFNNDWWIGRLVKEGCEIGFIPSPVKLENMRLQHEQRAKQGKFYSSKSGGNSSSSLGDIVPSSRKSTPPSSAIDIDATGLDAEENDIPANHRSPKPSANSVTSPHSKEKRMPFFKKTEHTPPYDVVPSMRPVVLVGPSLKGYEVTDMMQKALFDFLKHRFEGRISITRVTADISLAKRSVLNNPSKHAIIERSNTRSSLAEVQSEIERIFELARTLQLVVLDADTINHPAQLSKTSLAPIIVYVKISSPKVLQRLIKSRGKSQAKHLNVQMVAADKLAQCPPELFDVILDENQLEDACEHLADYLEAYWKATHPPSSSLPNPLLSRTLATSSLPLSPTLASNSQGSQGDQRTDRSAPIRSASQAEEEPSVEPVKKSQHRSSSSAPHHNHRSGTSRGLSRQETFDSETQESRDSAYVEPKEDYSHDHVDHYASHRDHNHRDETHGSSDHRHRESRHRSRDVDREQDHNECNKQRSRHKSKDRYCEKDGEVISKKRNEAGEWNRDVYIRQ
CAV1.2 (Voltage-gated L-type calcium channel), sequence (P54289 25-956 partner limits assumed): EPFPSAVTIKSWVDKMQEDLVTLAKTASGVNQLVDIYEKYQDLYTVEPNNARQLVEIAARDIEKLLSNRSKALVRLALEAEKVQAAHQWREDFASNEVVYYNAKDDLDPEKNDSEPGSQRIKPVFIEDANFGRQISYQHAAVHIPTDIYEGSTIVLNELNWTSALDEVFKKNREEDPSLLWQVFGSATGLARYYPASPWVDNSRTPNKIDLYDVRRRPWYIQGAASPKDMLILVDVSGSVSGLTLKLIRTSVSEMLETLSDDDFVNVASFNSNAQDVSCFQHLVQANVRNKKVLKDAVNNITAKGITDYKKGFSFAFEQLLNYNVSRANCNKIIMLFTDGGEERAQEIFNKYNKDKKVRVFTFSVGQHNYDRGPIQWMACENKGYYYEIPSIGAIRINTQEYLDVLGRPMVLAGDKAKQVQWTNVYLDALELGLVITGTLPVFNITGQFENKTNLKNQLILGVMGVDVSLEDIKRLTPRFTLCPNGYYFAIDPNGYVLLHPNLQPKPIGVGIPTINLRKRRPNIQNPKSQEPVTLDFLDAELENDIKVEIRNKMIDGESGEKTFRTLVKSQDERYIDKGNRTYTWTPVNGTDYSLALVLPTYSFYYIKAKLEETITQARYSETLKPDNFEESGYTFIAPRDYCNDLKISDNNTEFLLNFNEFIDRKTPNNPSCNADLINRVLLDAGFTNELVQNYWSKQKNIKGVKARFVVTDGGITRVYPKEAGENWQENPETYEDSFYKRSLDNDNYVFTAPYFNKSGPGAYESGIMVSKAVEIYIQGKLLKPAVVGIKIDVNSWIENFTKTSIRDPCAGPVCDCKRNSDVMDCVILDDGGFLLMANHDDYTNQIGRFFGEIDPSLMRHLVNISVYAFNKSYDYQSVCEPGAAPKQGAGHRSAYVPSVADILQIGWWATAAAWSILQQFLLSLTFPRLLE
CAV1.2 (Voltage-gated L-type calcium channel), sequence (P54289 957-1103 partner limits assumed): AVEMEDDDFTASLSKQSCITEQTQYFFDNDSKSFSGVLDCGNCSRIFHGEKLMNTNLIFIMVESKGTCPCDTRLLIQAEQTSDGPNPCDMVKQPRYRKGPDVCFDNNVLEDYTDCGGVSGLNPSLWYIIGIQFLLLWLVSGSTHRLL

[3] = humans, after 75 or 125 mg MDMA; standard deviation 1.3 hours; cited from earlier work
[4] = system: DAT and SERT; conditions: cited from earlier work
[5] = system: DAT and NET; conditions: neurotransmitter release; cited from earlier work
[6] = molecular target: Nicotinic acetylcholine Receptor α4 β2 (nAChR(a4/b2)) (Homo sapiens, UniProt P17787+P43681); assay: Ion channel assay, blocker format; format: cell-based; conditions: nAChR(a4/b2); Ion Channel; blocker; read-out: IC50 (μM) Antag./Blocker/Inhibitor
[7] = molecular target: Gamma-aminobutyric acid Receptor A (GABAA); assay: Ion channel assay, blocker format; format: cell-based; conditions: GABAA; Ion Channel; blocker; read-out: IC50 (μM) Antag./Blocker/Inhibitor

CCC(Cc1ccn2ccccc12)NC (stereo not shown) [Compound 25-14, 1-(indolizin-1-yl)-N-methylbutan-2-amine]
EC50 [1]: 2710 nM

CNC(C)Cc1ccn2ccccc12 (stereo not shown) [Compound 26-5, 1-(indolizin-1-yl)-N-methylpropan-2-amine HCl salt]
EC50 [1]: 61.9 nM

CCC(N)Cc1ccn2ccccc12 (stereo not shown) [Compound 27-1, 1-indolizin-1-ylbutan-2-amine HCl salt]
EC50 [1]: 21800 nM

COC(=O)C1=C(C)NC(C)=C(C(=O)OC(C)C)C1c1cccc2nonc12 (stereo not shown) [Isradipine, reference compound]
IC50 [2]: 0.017 µM

CNC(C)Cc1ccc2c(c1)OCO2 (stereo not shown) [MDMA]
duration of acute therapeutic effects [3]: 4.2 h | DAT/SERT IC50 ratio [4]: 0.08

C[C@H](N)Cc1ccccc1 [d-amphetamine, dextroamphetamine]
DAT/NET EC50 ratio [5]: 0.9

CN[C@@H](C)Cc1ccccc1 [d-methamphetamine]
DAT/NET EC50 ratio [5]: 0.5

Dihydro-AY-erythroidine [reference compound]
IC50 [6]: 0.682 µM

Picrotoxin [reference compound]
IC50 [7]: 2.78 µM
